In the first assay the test system is U2OS. Nature of the assay: Cell viability, CellTiter-Glo assay, U2OS. It is filed as cell-based. The following applies: Homo sapiens. As to the method:
(§1) The viability of screened cancer cells was recorded using a luminescence-based CellTiter-Glo® assay for the ATP quantification. The screening concentration of the molecule ranged from 100/10 μM to 45/4.5 nM with an 8-point-3-fold dilution series in DMEM media (>0.1% DMSO as control). Each experiment was conducted in more than two biological replicates with three technical replicates. The error bar is a representation of standard deviation among the technical replicates.
The viability of screened cancer cells was recorded using a luminescence-based CellTiter-Glo® assay for the ATP quantification. The screening concentration of IITK3002 ranged from 10 μM to 4.5 nM with an 8-point-3-fold dilution series in DMEM media (>0.1% DMSO as control). Each experiment was conducted in more than two biological replicates with three technical replicates. The error bar is a representation of standard deviation among the technical replicates.
a. […] In parallel, we have also synthesized the bromoacetamide (IITK3002) version of the lead molecules which is slightly more reactive with thiol nucleophiles when compared to chlorooacetamide warheads as depicted in FIG. 13. […] In addition, we also evaluated the molecules' antiproliferative potency against a panel of twelve different cancer phenotypes. The set of cancer cell lines included liver, breast, colon, myeloma, bone, blood, skin, brain and prostate lineages (FIG. 2, 3, Table 1).
In general terms: In ATP-based viability assays light output follows the ATP content of the culture.
`O=C(CBr)Nc1ccccc1C(=O)c1ccccc1` [IITK3013, N-(2-benzoylphenyl)-2-bromoacetamide] came in with an EC50 of 1520 nM.

Compound `C=CCN(c1ccccc1C(=O)c1ccccc1)S(=O)(=O)C=C` [IITK3027, N-allyl-N-(2-benzoylphenyl)ethenesulfonamide] registered an EC50 of 1220 nM.

In turn, `O=C(COc1ccccc1)Nc1ccccc1C(=O)c1ccccc1` [IITK3014, N-(2-benzoylphenyl)-2-phenoxyacetamide] returned an EC50 of over 20000 nM.

The compound `C=CCN(C(=O)CCl)c1ccccc1C(=O)c1ccccc1` [IITK3018, N-allyl-N-(2-benzoylphenyl)-2-chloroacetamide] displayed an EC50 of 600 nM.

On to `C=CCN(C(=O)CBr)c1ccccc1C(=O)c1ccccc1` [IITK3019, N-allyl-N-(2-benzoylphenyl)-2-bromoacetamide], for which a half-maximal effect (EC50) was put at 30 nM.

In turn, `C=CCN(C(=O)COc1c(F)c(F)c(F)c(F)c1F)c1ccccc1C(=O)c1ccccc1` [IITK3022, N-allyl-N-(2-benzoylphenyl)-2-(perfluorophenoxy)acetamide] returned an EC50 of 1450 nM.

Another assay concerns Huh-7 cells. Description: Cell viability, luminescence-based CellTiter-Glo assay, Huh-7 cells. The following applies: Homo sapiens, Huh-7, Huh-7 cells, antiproliferative activity; read-out: EC50 in Huh-7 cells. As to the method: The viability of Huh-7 cells was recorded using a luminescence-based CellTiter-Glo® assay. The screening concentration of the molecules were 10 μM with or without Fer-1 (10 μM) in DMEM media (>0.1% DMSO as control).
Ferroptosis is a unique form of cell death mechanism mediated by the accumulation of lipid peroxides in cells which is distinct from healthy cells' apoptosis, a programmed […] route. We aimed to exploit the induction of ferroptosis in cancer cells using covalent small molecules as a potential strategy for cancer therapeutic development. […] We used various amide bond formation chemistry to construct the library members and these molecules are well characterized by various spectroscopic and mass spectrometry techniques. Once confirmed, these thiol reactive library members were screened in a cancer cell viability assay in combination with ferrostatin-1 (Fer-1), a ferroptosis inhibitor as depicted in FIG. 11. […] We have screened a total of ˜50 electrophilic small molecules to prevent the proliferation of hepatocellular carcinoma (Huh-7 cells) in combination with and without Fer-1. From our initial screening, we identified haloacetamides of 2-aminoalkylbenzophenone as potential ferroptosis inducers as depicted in FIG. 11.
as §1
The viability of screened cancer cells was recorded using a luminescence-based CellTiter-Glo® assay for the ATP quantification. The screening concentration of IITK3002 ranged from 10 μM to 4.5 nM with an 8-point-3-fold dilution series in DMEM media (>0.1% DMSO as control). Each experiment was conducted in more than two biological replicates with three technical replicates. The error bar is a representation of standard deviation among the technical replicates. […]
a. Electrophilic Warhead Optimization: Once we identified 2-benzoylphenyl-a-haloacetamide as the lead scaffold, we have investigated the structure-activity-relationship analysis to precisely capture the effect of various chemical handles of the scaffold and use the knowledge to improve the overall potency and selectivity of this molecule to prevent cancer cell proliferation. First, we changed the haloacetamide electrophilic unit with various other electrophiles with a characteristic high, moderate, and weak reactivity with thiols when compared to chloroacetamide. Therefore, we opted vinylsulfonamide (highly reactivity), acrylamide (moderate reactivity), and phenoxyacetamides (weak reactivity warheads) for incorporation in the place of haloacetamide warhead of the top hit scaffold. Once synthesized, these molecules were evaluated to assess their antiproliferative potency against Huh-7 cells (Table 2). As expected, the introduction of weakly reactive electrophilic warheads, phenoxyactamides, completely lost the activity against Huh-7 cells. […] Perhaps, the secondary interactions of the electrophilic warhead with the target proteins might play additional roles. Therefore, we shifted our focus to optimize the rest of the core scaffold for further SAR analysis. b. Role of N-Substitutions: Next, we synthesized the NH-derivative of haloacetamides to capture the importance of N-alkylation on the activity of our hit molecule. […] Perhaps the hydrogen bonding induced planarity around the warhead influences the molecules' weakened potency. Conversely, the additional flexibility in the lead molecule (tertiary amide) might contribute to the strong antiproliferative activity of the hit molecule. […]
Regarding `CN(C(=O)CCl)c1ccccc1C(=O)c1ccc(-c2ccccc2)cc1` [IITK3055, N-(2-([1,1′-biphenyl]-4-carbonyl)phenyl)-2-chloro-N-methylacetamide], the EC50 came to 2 nM.

The assay is the same for the next values; noted with them: Homo sapiens, Huh-7, Huh-7 cells, cell viability; read-out: EC50 Huh-7.
Regarding `CN(C(=O)CCl)c1ccc([N+](=O)[O-])cc1C(=O)c1ccccc1` [IITK3073, N-(2-benzoyl-4-nitrophenyl)-2-chloro-N-methylacetamide], the EC50 is over 20000 nM.

Consider `CN(C(=O)CBr)c1ccccc1C(=O)c1ccc(-c2cccc(Oc3ccccc3)c2)cc1` [IITK3063, 2-bromo-N-methyl-N-(2-(3′-phenoxy-[1,1′-biphenyl]-4-carbonyl)phenyl)acetamide], for which the EC50 is 24.5 nM.

In the case of `Cc1ccc(-c2ccc(C(=O)c3ccccc3N(C)C(=O)CBr)cc2)cc1` [IITK3057, 2-bromo-N-methyl-N-(2-(4′-methyl-[1,1′-biphenyl]-4-carbonyl)phenyl)acetamide], the EC50 turned out to be 18 nM.

For `C#CCN(C(=O)COc1c(F)c(F)c(F)c(F)c1F)c1ccccc1C(=O)c1ccccc1` [IITK3031, N-(2-benzoylphenyl)-2-(perfluorophenoxy)-N-(prop-2-yn-1-yl)acetamide], the EC50 was over 20000 nM.

As for `C=CS(=O)(=O)N(C)c1ccccc1C(=O)c1ccc(-c2ccccc2)cc1` [IITK3070, N-(2-([1,1′-biphenyl]-4-carbonyl)phenyl)-N-methylethenesulfonamide], the EC50 is 8220 nM.

Turning to `C=CCN(C(=O)COc1ccc([N+](=O)[O-])cc1)c1ccccc1C(=O)c1ccccc1` [IITK3025, N-allyl-N-(2-benzoylphenyl)-2-(4-nitrophenoxy)acetamide], the EC50 is over 100000 nM.

Turning to `CN(C(=O)CCl)c1ccccc1C(=O)c1ccc(-c2ccc(F)cc2F)cc1` [IITK3066, 2-chloro-N-(2-(2′,4′-difluoro-[1,1′-biphenyl]-4-carbonyl)phenyl)-N-methylacetamide], the EC50 was 8.83 nM.

For the compound `CN(C(=O)CBr)c1ccccc1C(=O)c1ccc(-c2ccc(C#N)cc2)cc1` [IITK3061, 2-bromo-N-(2-(4′-cyano-[1,1′-biphenyl]-4-carbonyl)phenyl)-N-methylacetamide], the EC50 was determined as 4820 nM.

For `CN(C(=O)CBr)c1ccccc1C(=O)c1ccc(-c2ccc(F)cc2F)cc1` [IITK3067, 2-bromo-N-(2-(2′,4′-difluoro-[1,1′-biphenyl]-4-carbonyl)phenyl)-N-methylacetamide], the EC50 is 12.1 nM.

Turning to `C#CCN(C(=O)COc1ccc(C(C)(C)C)cc1)c1ccccc1C(=O)c1ccccc1` [IITK3032, N-(2-benzoylphenyl)-2-(4-(tert-butyl)phenoxy)-N-(prop-2-yn-1-yl)acetamide], the EC50 is over 20000 nM.

On to `COc1ccc(-c2ccc(C(=O)c3ccccc3N(C)C(=O)CCl)cc2)cc1` [IITK3064, 2-chloro-N-(2-(4′-methoxy-[1,1′-biphenyl]-4-carbonyl)phenyl)-N-methylacetamide], for which the EC50 came to 19 nM.

As to `C#CCN(C(=O)CBr)c1ccccc1C(=O)c1ccc(-c2ccccc2)cc1` [IITK3071, N-(2-([1,1′-biphenyl]-4-carbonyl)phenyl)-2-bromo-N-(prop-2-yn-1-yl)acetamide], the EC50 was under 100 nM.

In the case of `CN(C(=O)CCl)c1ccccc1C(=O)c1ccc(-c2cccc(Oc3ccccc3)c2)cc1` [IITK3062, 2-chloro-N-methyl-N-(2-(3′-phenoxy-[1,1′-biphenyl]-4-carbonyl)phenyl)acetamide], the EC50 is 36 nM.

As for `CN(C(=O)CBr)c1ccccc1C(=O)c1ccc(-c2ccc(C=O)cc2)cc1` [IITK3059, 2-bromo-N-(2-(4′-formyl-[1,1′-biphenyl]-4-carbonyl)phenyl)-N-methylacetamide], the EC50 came out at 79 nM.

Turning to `CN(C(=O)COc1c(F)c(F)c(F)c(F)c1F)c1ccccc1C(=O)c1ccccc1` [IITK3007, N-(2-benzoylphenyl)-N-methyl-2-(perfluorophenoxy)acetamide], the EC50 was over 20000 nM.

`O=C(COc1ccccc1)Nc1ccccc1C(=O)c1ccccc1` [IITK3014, N-(2-benzoylphenyl)-2-phenoxyacetamide]: the EC50 was over 20000 nM.

Turning to `CN(C(=O)CCl)c1ccccc1C(=O)c1ccc(-c2ccccc2)cc1` [IITK3055, N-(2-([1,1′-biphenyl]-4-carbonyl)phenyl)-2-chloro-N-methylacetamide], the EC50 turned out to be 2 nM.

As to `CN(C(=O)CCl)c1ccccc1C(=O)c1ccc(-c2ccc(C=O)cc2)cc1` [IITK3058, 2-chloro-N-(2-(4′-formyl-[1,1′-biphenyl]-4-carbonyl)phenyl)-N-methylacetamide], the EC50 amounted to 117 nM.

In the case of `CN(C(=O)CCl)c1ccccc1C(=O)c1ccc(-c2cccc([N+](=O)[O-])c2)cc1` [IITK3068, 2-chloro-N-methyl-N-(2-(3′-nitro-[1,1′-biphenyl]-4-carbonyl)phenyl)acetamide], the EC50 stood at 3.06 nM.

For `COc1ccc(-c2ccc(C(=O)c3ccccc3N(C)C(=O)CBr)cc2)cc1` [IITK3065, 2-bromo-N-(2-(4′-methoxy-[1,1′-biphenyl]-4-carbonyl)phenyl)-N-methylacetamide], the EC50 turned out to be 16 nM.

For the compound `CN(C(=O)CBr)c1ccccc1C(=O)c1ccc(-c2ccccc2)cc1` [IITK3056, N-(2-([1,1′-biphenyl]-4-carbonyl)phenyl)-2-bromo-N-methylacetamide], the EC50 was determined as 13 nM.

Consider `CN(C(=O)CCl)c1ccccc1C(=O)c1ccc(-c2ccc(C#N)cc2)cc1` [IITK3060, 2-chloro-N-(2-(4′-cyano-[1,1′-biphenyl]-4-carbonyl)phenyl)-N-methylacetamide], for which the EC50 amounted to 26 nM.

For the compound `C#CCN(C(=O)CCl)c1ccccc1C(=O)c1ccc(-c2ccccc2)cc1` [IITK3072, N-(2-([1,1′-biphenyl]-4-carbonyl)phenyl)-2-chloro-N-(prop-2-yn-1-yl)acetamide], the EC50 is over 138 nM.

As to `CN(C(=O)CBr)c1ccccc1C(=O)c1ccc(-c2cccc([N+](=O)[O-])c2)cc1` [IITK3069, 2-bromo-N-methyl-N-(2-(3′-nitro-[1,1′-biphenyl]-4-carbonyl)phenyl)acetamide], the EC50 stood at 3.5 nM.

A further assay has as its system A549. Description: Cell viability, A549. The following applies: Homo sapiens. It counts as cell-based.
Compound `C=CCN(c1ccccc1C(=O)c1ccccc1)S(=O)(=O)C=C` [IITK3027, N-allyl-N-(2-benzoylphenyl)ethenesulfonamide] returned an EC50 of 1920 nM.

`C=CCN(C(=O)C=C)c1ccccc1C(=O)c1ccccc1` [IITK3026, N-allyl-N-(2-benzoylphenyl)acrylamide] registered an EC50 of 32800 nM.

On to `C=CCN(C(=O)CCl)c1ccccc1C(=O)c1ccccc1` [IITK3018, N-allyl-N-(2-benzoylphenyl)-2-chloroacetamide], for which the EC50 amounted to 2400 nM.

Compound `C=CCN(C(=O)CBr)c1ccccc1C(=O)c1ccccc1` [IITK3019, N-allyl-N-(2-benzoylphenyl)-2-bromoacetamide] registered an EC50 of 300 nM.

`C=CCN(C(=O)COc1c(F)c(F)c(F)c(F)c1F)c1ccccc1C(=O)c1ccccc1` [IITK3022, N-allyl-N-(2-benzoylphenyl)-2-(perfluorophenoxy)acetamide] registered an EC50 of 3370 nM.

Broadly, the EC50 is the concentration giving half of the maximal effect.

These data come from patent publication US20250099407A1, “2-AMINO BENZOPHENONE DERIVATIVES FOR TARGETED FERROPTOSIS INDUCTION IN CANCER THERAPY” (INDIAN INSTITUTE OF TECHNOLOGY KANPUR, priority 2023, published 2025).
